Measured values: patent US20090088329A1, “MULTICOMPONENT PROTEIN MICROARRAYS” (priority 2002, published 2009)
Structures can show the parent of a compound that is named as a salt.

How the values were obtained:
[1] = target: rhodamine-labelled calmodulin (CaM)/rhodamine-labelled melittin complex (Homo sapiens, UniProt P0DP23); assay: Calmodulin-melittin sol-gel microarray, rhodamine self-quenching fluorescence; format: binding; settings: for effect on CaM-melittin complex / fluorescence intensity: addition to array, 20:1 molar ratio to CaM for guanidine hydrochloride
Description: A third system involving protein-peptide interactions consisted of rhodamine-labelled calmodulin (CaM) and rhodamine-labelled mellitin, and was based on a slightly different fluorescence-based screening method utilizing these same biomolecules entrapped in sol-gel derived monoliths. In the absence of antagonists or denaturants (such as guanidine hydrochloride), these two species exist in a complex that brings the two rhodamine labels into close proximity, resulting in self-quenching and thus a low fluorescence signal.
Another example of a sol-gel derived microarray involving a protein-peptide interaction has been developed consisting of rhodamine-labelled calmodulin (CaM) and rhodamine-labelled melittin co-entrapped in a sodium silicate derived sol-gel. In the absence of antagonists, these two species exist in a complex that brings the two rhodamine labels into close proximity, resulting in a self-quenching dimer and thus a low fluorescence signal.
Columns 1 & 5 contain the protein-protein interaction between CaM and Mellitin. Both of which are labelled with rhodamine. Columns 2 & 4 are blank and contain only buffer. Column 3 contains CaM—Rhodamine alone and acts as a positive control. Upon addition of GdHCl (2M) to the top of the array and imaging every 20 s, the CaM-Mel columns increased in fluorescence over 2-fold (Panel B), while the positive control increased slightly initially but reached a relatively low steady-state value quickly (see graph, FIG. 7)

urease = urease (Canavalia ensiformis, UniProt P07374); settings: cited from earlier work
[2] = target: T1, Urease (type IX from Jack Beans) (Canavalia ensiformis, UniProt P07374); assay: biochemical; format: biochemical; settings: for Ki: 20 mM urea; for Km / kcat: Urease/FD; for kcat: pH 5.1
T1 construct: purchased Sigma (St. Louis, Mo.) type IX
Experimental: Preparation of Spotting Solutions: GOx and HRP were dissolved at concentration of 0.4 mg.mL^−1 (250 units.mg^−1) and 0.01 mg.mL^−1 (1000 units.mg^−1), respectively, in 50 mM sodium phosphate buffer, pH 7.4 to form the protein stock solutions. The Amplex Red reagent was made up to a stock concentration of 10 mM. Urease and fluorescein dextran were dissolved at concentrations of 2 mg.mL^−1 (35,400 units.g^−1) and 25 μM, respectively, in 50 mM Tris buffer containing 50 mM NaCl, pH 8 to form their respective stock solutions. GOx/HRP assay samples were prepared to a total volume of 50 μL by mixing 3 μL of each of the GOx and HRP stock solutions, 39 μL of sodium phosphate buffer and 5 μL of the Amplex Red dye solution. Negative and blank control samples were prepared in the same way except that phosphate buffer replaced the missing reagent. Positive control samples contained GOx and HRP as well as 15 μL of 100 μM D-glucose (in buffer) and only 24 μL of buffer. […] Similarly, the blank and positive control samples replaced the missing reagents with Tris buffer while the enzyme selectivity control was obtained by replacing urease with AChE (0.01 mg.mL^−1) in Tris buffer.
Enzyme Assays All enzyme assays and inhibition studies were performed in 96 well plates using a TECAN Safire absorbance/fluorescence platereader operated in fluorescence mode, or on the microarray using time-dependent fluorescence intensity measurements. The enzymatic activity of free and entrapped GOx in 96 well plates was measured by adding 50 μL of a solution containing varying concentrations of glucose to the microtiter well and monitoring of the fluorescence emission at 590 nm for 20 minutes (in solution) or 45 minutes (for entrapped GOx) with excitation at 573 nm. For microarrays, 20 μL of a glucose solution was added to the top of the array, left for 20 seconds and then removed by gently blowing air over the surface, followed by monitoring of fluorescence emission over time. […] Images were acquired before the addition of glucose and then every 30 seconds for 30 minutes after the introduction of glucose using a 30 second integration time per image. For urease, activity and inhibition were measured by adding 100 μL of a solution containing a constant amount of urea (20 mM) in the presence of varying amounts of thiourea (0-100 mM) to the microtiter well and the fluorescence emission of the fluorescein dextran was monitored at 520 nm for 15 minutes (solution) or 45 minutes (entrapped). Microarrays containing urease and fluorescein dextran were first imaged after washing with distilled deionized water (ddH2O, pH 5.1) to provide a constant baseline intensity response. Following this, 20 μL of a urea/thiourea solution was added to the top of the array, which was then covered with a coverslip to minimize solvent evaporation. The emission intensity of fluorescein dextran was measured every 20 seconds for 10 minutes using a 10 second integration time per image following the addition of the urea solution to the array. All samples were tested within 24 hours of being prepared.
For both enzymes studied the initial rate of change in fluorescence intensity was converted to a change in product concentration with time using calibration curves relating the emission intensity of fluorescein to the concentration of ammonium carbonate (for urease) or hydrogen peroxide (for GOx). The Michaelis constants (KM) and catalytic rate constants (kcat) for the enzymes were calculated by generating either double reciprocal (Lineweaver-Burk) plots relating (initial rate of product formation)^−1 to (substrate concentration)^−1 or Hanes-Wolff plots, and fitting these to a linear model. Inhibition constants (KI) for urease were calculated by assessing the changes in the initial rate values for the enzyme in the presence of varying levels of inhibitor, according to the equation: […]

[3] = entrapped enzyme in platereader

T1 sequence (P07374 whole entry, looked up): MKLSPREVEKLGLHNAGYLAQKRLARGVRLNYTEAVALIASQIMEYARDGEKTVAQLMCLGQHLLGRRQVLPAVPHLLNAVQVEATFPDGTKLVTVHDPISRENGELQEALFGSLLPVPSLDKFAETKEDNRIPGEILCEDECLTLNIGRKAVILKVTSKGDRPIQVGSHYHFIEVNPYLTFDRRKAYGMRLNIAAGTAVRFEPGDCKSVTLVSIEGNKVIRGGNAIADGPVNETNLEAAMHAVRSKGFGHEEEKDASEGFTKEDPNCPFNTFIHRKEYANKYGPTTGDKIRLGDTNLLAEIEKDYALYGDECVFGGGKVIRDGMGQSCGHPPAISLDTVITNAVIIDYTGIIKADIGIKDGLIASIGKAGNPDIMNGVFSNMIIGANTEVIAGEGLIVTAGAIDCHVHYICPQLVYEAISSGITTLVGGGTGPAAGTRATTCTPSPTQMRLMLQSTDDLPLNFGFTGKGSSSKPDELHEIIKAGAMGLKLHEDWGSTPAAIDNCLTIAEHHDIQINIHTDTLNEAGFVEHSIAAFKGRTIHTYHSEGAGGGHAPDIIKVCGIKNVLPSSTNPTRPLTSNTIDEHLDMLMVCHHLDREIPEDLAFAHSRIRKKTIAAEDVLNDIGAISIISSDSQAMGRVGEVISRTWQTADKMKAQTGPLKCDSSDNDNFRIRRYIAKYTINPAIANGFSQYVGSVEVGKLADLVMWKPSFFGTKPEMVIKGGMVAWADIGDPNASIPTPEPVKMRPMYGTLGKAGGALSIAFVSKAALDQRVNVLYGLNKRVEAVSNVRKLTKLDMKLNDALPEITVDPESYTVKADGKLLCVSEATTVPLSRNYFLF
urease, sequence (P07374 whole entry, looked up): as above

SMILES: N=C(N)c1ccccc1 [benzamidine]
- effect on CaM-melittin complex / fluorescence intensity [1]: no changes in intensity above that obtained for CaM alone

SMILES: N=C(N)N [guanidine hydrochloride]
- increase in fluorescence of CaM-Mel columns ([1]; GdHCl 2M added to top of array, imaging every 20 s): over 2 fold
- effect on CaM-melittin complex / fluorescence intensity [1]: the complex was dissociated

SMILES: NC(N)=S [thiourea]
- Ki (urease; urease in solution, literature range, different pH values (5.5 to 8)): 48 to 85 mM
- Ki ([2]; urease entrapped in bulk sodium silicate glass, platereader): 54 ± 2 mM
- Ki ([2]; urease sol-gel microarray): 62 ± 7 mM

SMILES: NC(N)=O [urea]
- Km (urease; urease, literature): 2900 µM
- Km [2, 3]: 2350 ± 30 µM
- kcat [2, 3]: 1.33 ± 0.02 s⁻¹
- Km ([2]; sol-gel microarray): 1900 ± 100 µM
- kcat ([2]; sol-gel microarray): 1.1 ± 0.1 s⁻¹
- Km ([2]; solution, platereader): 1300 ± 200 µM
- kcat ([2]; solution, platereader): 78 ± 2 s⁻¹
- kcat of entrapped protein lower than in solution ([2]; urease, entrapped vs solution): up to 70 fold
